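Five concentrations, 48 hours, 96-well plates. At the GI50, growth is halved.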 Activity calls are given as the source filed them. Cut-off read from the data, not from the text of the source: active = GI50 up to about 1.1 µM and inactive = higher. Where a SMILES comes first, the peptide text is derived from it. The star is where a group is joined. Boc = CC(C)(C)OC(=O)*; Bn = c1ccc(C*)cc1
Key:
Assay in all cases: inhibition of tumour cell growth, NCI panel, 48 h
NCI/ADR-RES = test system: NCI/ADR-RES
SF-295 = test system: SF-295
SK-MEL-5 = test system: SK-MEL-5
LOX IMVI = test system: LOX IMVI
A498 = test system: A498
SNB-75 = test system: SNB-75
COLO 205 = test system: COLO 205
EKVX = test system: EKVX
MDA-N = test system: MDA-N
HOP-92 = test system: HOP-92
HCT-15 = test system: HCT-15
SNB-19 = test system: SNB-19
HOP-62 = test system: HOP-62
HCC 2998 = test system: HCC 2998
Malme-3M = test system: Malme-3M
MCF7 = test system: MCF7
K562 = test system: K562
OVCAR-3 = test system: OVCAR-3
PC-3 = test system: PC-3
T47D = test system: T47D

| Structure (SMILES) | GI50 (NCI/ADR-RES) | GI50 (SF-295) | GI50 (SK-MEL-5) | GI50 (LOX IMVI) | GI50 (A498) | GI50 (SNB-75) | GI50 (COLO 205) | GI50 (EKVX) | GI50 (MDA-N) | GI50 (HOP-92) | GI50 (HCT-15) [µM] | GI50 (SNB-19) | GI50 (HOP-62) | GI50 (HCC 2998) | GI50 (Malme-3M) | GI50 (MCF7) | GI50 (K562) | GI50 (OVCAR-3) | GI50 (PC-3) | GI50 (T47D) |
| --- | --- | --- | --- | --- | --- | --- | --- | --- | --- | --- | --- | --- | --- | --- | --- | --- | --- | --- | --- | --- |
| CCN1CC2=C(NC(=S)NC2c2cc(OC)c(OC)c(OC)c2)/C(=C/c2cc(OC)c(OC)c(OC)c2)C1 (configuration not stated) | 30.9 µM (inactive) | 53 µM (inactive) | 13.2 µM (inactive) | 37.2 µM (inactive) | 27.3 µM (inactive) | 2.74 µM (inactive) | 20.1 µM (inactive) | 15 µM (inactive) | 25.8 µM (inactive) | 18.1 µM (inactive) | 32 | 36.8 µM (inactive) | 50.6 µM (inactive) | 29.8 µM (inactive) | 0.871 µM (active) | 24.6 µM (inactive) | 17.3 µM (inactive) | 67.5 µM (inactive) | 26.4 µM (inactive) |  |
| COC(=O)c1nc2c3c(cccc3c1C(=O)OC)Nc1ccccc1-2 | 17.8 µM (inactive) | 21.1 µM (inactive) | 15.4 µM (inactive) | 32.3 µM (inactive) | 36.6 µM (inactive) | 34.5 µM (inactive) | 28.1 µM (inactive) | 65.8 µM (inactive) | 46.2 µM (inactive) | 16.9 µM (inactive) |  | 51.3 µM (inactive) | 23.6 µM (inactive) | 42.3 µM (inactive) | 29.2 µM (inactive) | 60.4 µM (inactive) | 54.1 µM (inactive) | 36.6 µM (inactive) | 15.5 µM (inactive) |  |
| COc1cccc(-c2nc(-c3cnccn3)n(COCCO)n2)c1 | > 100 µM (inactive) | > 100 µM (inactive) | > 100 µM (inactive) | > 100 µM (inactive) |  |  | > 100 µM (inactive) |  | > 100 µM (inactive) | > 100 µM (inactive) | > 100 | > 100 µM (inactive) | > 100 µM (inactive) | > 100 µM (inactive) |  | > 100 µM (inactive) | > 100 µM (inactive) | > 100 µM (inactive) | > 100 µM (inactive) | > 100 µM (inactive) |
| N/C(=N\c1cccc(Cl)c1)c1ccccc1N | > 100 µM (inactive) | > 100 µM (inactive) | > 100 µM (inactive) | > 100 µM (inactive) | > 100 µM (inactive) | > 100 µM (inactive) | > 100 µM (inactive) | > 100 µM (inactive) | > 100 µM (inactive) |  | > 100 | > 100 µM (inactive) | > 100 µM (inactive) | > 100 µM (inactive) | > 100 µM (inactive) | > 100 µM (inactive) | > 100 µM (inactive) | > 100 µM (inactive) | > 100 µM (inactive) |  |
| O=C(Nc1nc(C23CC4CC(CC(C4)C2)C3)cs1)c1cc2ccccc2oc1=O | > 100 µM (inactive) | > 100 µM (inactive) | > 100 µM (inactive) | > 100 µM (inactive) | > 100 µM (inactive) | > 100 µM (inactive) | > 100 µM (inactive) | > 100 µM (inactive) | > 100 µM (inactive) | > 100 µM (inactive) | > 100 | > 100 µM (inactive) | > 100 µM (inactive) | > 100 µM (inactive) | > 100 µM (inactive) | > 100 µM (inactive) | > 100 µM (inactive) | > 100 µM (inactive) | > 100 µM (inactive) |  |
| CC(C)Oc1c(O)c2c3c(oc(=O)n3C=CC2c2ccccc2)c1OC(C)C (configuration not stated) | 27.5 µM (inactive) | 20.8 µM (inactive) | 32.3 µM (inactive) | 37.8 µM (inactive) |  | 21.9 µM (inactive) | 22.1 µM (inactive) | 22.3 µM (inactive) | 36.3 µM (inactive) | 30.2 µM (inactive) | 12.8 | 20.3 µM (inactive) | 26.7 µM (inactive) | 19 µM (inactive) |  | 19.6 µM (inactive) |  | 21.5 µM (inactive) | 17 µM (inactive) | 25.9 µM (inactive) |
| CN(C)CC1CCCCCC(Br)C1=O (configuration not stated) | 13.9 µM (inactive) | > 64.6 µM (inactive) | 15.5 µM (inactive) | 12.7 µM (inactive) | 54.8 µM (inactive) | 37.2 µM (inactive) | 11.5 µM (inactive) | 15.1 µM (inactive) |  | 5.66 µM (inactive) | 9.23 | > 83.2 µM (inactive) | 24.8 µM (inactive) | 4.57 µM (inactive) | 6.5 µM (inactive) | 2.71 µM (inactive) | 2.02 µM (inactive) | 7.38 µM (inactive) | 21.3 µM (inactive) | 9.23 µM (inactive) |
| COC(=O)C[C@H]1[C@]2(C)C3=C(C)[C@H](c4ccoc4)CC3O[C@@H]2[C@@H]2OC(=O)[C@]3(C)CCC(=O)[C@@]1(C)[C@@H]23 (some centres not stated) | 48.6 µM (inactive) | > 100 µM (inactive) | 56.6 µM (inactive) | 40.1 µM (inactive) | > 100 µM (inactive) | 42.8 µM (inactive) | 62.8 µM (inactive) |  | 49.9 µM (inactive) | > 100 µM (inactive) | 38.8 |  | > 100 µM (inactive) |  | 40.4 µM (inactive) | 31.4 µM (inactive) | 35.2 µM (inactive) | 53 µM (inactive) |  | > 100 µM (inactive) |
| CN(C)c1cccc2c1C(=O)C=CC21c2ccc(N(C)C)c3c(N(C)C)ccc(c23)C(c2ccccc2)C1c1ccccc1 (configuration not stated) | 22.6 µM (inactive) | 14.5 µM (inactive) | 14.2 µM (inactive) | 15.2 µM (inactive) | 6.68 µM (inactive) | 8.26 µM (inactive) | 11.3 µM (inactive) | 22.2 µM (inactive) | 16.4 µM (inactive) | 8.73 µM (inactive) | 27.3 | 16.3 µM (inactive) | 17.6 µM (inactive) | 17.6 µM (inactive) | 18 µM (inactive) | 17.9 µM (inactive) | 18.3 µM (inactive) | 12.6 µM (inactive) | 9.71 µM (inactive) |  |
| CSc1cc(Cl)c(C)cc1S(=O)(=O)NC(=O)Nc1ccc(Cl)cc1 | 25.6 µM (inactive) | 29.6 µM (inactive) | 22.2 µM (inactive) | 10.9 µM (inactive) | 38.2 µM (inactive) | 27.1 µM (inactive) | 15.5 µM (inactive) | 32.7 µM (inactive) | 33.5 µM (inactive) | 24.4 µM (inactive) | 20.5 | 30.5 µM (inactive) | 24.6 µM (inactive) | 16 µM (inactive) | 31.6 µM (inactive) | 30.3 µM (inactive) | 29.9 µM (inactive) | 28 µM (inactive) | 19.9 µM (inactive) |  |
| C[C@]12CC[C@H]3[C@@H](CC[C@]4(O)C[C@@H](O)CC[C@]34/C=N/O)[C@@]1(O)CC[C@@H]2C1=COC(=O)C1 | 0.141 µM (active) | 0.0545 µM (active) | 0.0583 µM (active) | 0.136 µM (active) | 0.0929 µM (active) | 0.332 µM (active) | 0.474 µM (active) | 0.1 µM (active) | 0.191 µM (active) | 0.2 µM (active) | 0.158 | 0.673 µM (active) | 0.102 µM (active) | 0.251 µM (active) | 0.169 µM (active) |  | 0.12 µM (active) | 0.0472 µM (active) | 0.149 µM (active) | 0.317 µM (active) |
| COC(=O)C1=C(C(=O)OC)C2CCC1CC2=O (configuration not stated) | > 100 µM (inactive) | > 100 µM (inactive) | > 100 µM (inactive) | > 100 µM (inactive) | > 100 µM (inactive) | > 100 µM (inactive) | 50.9 µM (inactive) | > 100 µM (inactive) | > 100 µM (inactive) |  | 83.8 | > 100 µM (inactive) | > 100 µM (inactive) | > 100 µM (inactive) | > 100 µM (inactive) | > 100 µM (inactive) | 49 µM (inactive) | > 100 µM (inactive) | > 100 µM (inactive) |  |
| Cc1ccc(C(=O)Nc2ccc(S(=O)(=O)O)c3cc(S(=O)(=O)O)cc(S(=O)(=O)O)c23)cc1NC(=O)Nc1cc(C(=O)Nc2ccc(S(=O)(=O)O)c3cc(S(=O)(=O)O)cc(S(=O)(=O)O)c23)ccc1C |  |  | > 87.5 µM (inactive) | > 87.5 µM (inactive) | > 87.5 µM (inactive) | > 87.5 µM (inactive) |  |  | > 87.5 µM (inactive) |  | > 87.5 | > 87.5 µM (inactive) | > 87.5 µM (inactive) | > 87.5 µM (inactive) | > 87.5 µM (inactive) | > 87.5 µM (inactive) | > 87.5 µM (inactive) | > 87.5 µM (inactive) | > 87.5 µM (inactive) | > 87.5 µM (inactive) |
| COC(=O)[C@]1(C)CCC[C@]2(C)[C@@H](CCC(=O)C(C)C)[C@]3(C=O)O[C@@H]3C[C@H]21 | 25.7 µM (inactive) | 36.1 µM (inactive) | 31.1 µM (inactive) | 24.7 µM (inactive) |  | 17.1 µM (inactive) | 35 µM (inactive) | 44.8 µM (inactive) | 23.6 µM (inactive) | 29.8 µM (inactive) | 26.6 | 37.2 µM (inactive) |  | 58.6 µM (inactive) | 53.1 µM (inactive) | 33.4 µM (inactive) | 27.9 µM (inactive) | 33.4 µM (inactive) | 28.4 µM (inactive) | 21.8 µM (inactive) |
| COC(=O)C(CC(C)C)NC(=O)C(C)NC(=O)C(Cc1ccc(OCc2ccccc2)cc1)NC(=O)C(COCc1ccccc1)NC(=O)OC(C)(C)C (configuration not stated) (Boc-S(Bn)Y(Bn)AL-OMe; configuration not given here) | > 100 µM (inactive) | > 100 µM (inactive) | > 100 µM (inactive) | > 100 µM (inactive) |  | > 100 µM (inactive) | > 100 µM (inactive) | > 100 µM (inactive) | > 100 µM (inactive) | > 100 µM (inactive) |  | > 100 µM (inactive) | > 100 µM (inactive) |  | > 100 µM (inactive) | > 100 µM (inactive) | > 100 µM (inactive) | > 100 µM (inactive) | > 100 µM (inactive) | > 100 µM (inactive) |

— ChEMBL document CHEMBL1201862, “PubChem BioAssay data set” (2004)
